Experimental data reported in patent US20250255841A1, “METHODS FOR TREATING CYTOKINE STORM ASSOCIATED WITH ACINETOBACTER BAUMANNII INFECTIONS” (City University of Hong Kong, priority 2024, published 2025).

Assays:
[1] = test system: ATCC17978-infected mice; test: Mouse sepsis infection model with immunosuppressive drug treatment (survival, body weight, spleen weight); type: in vivo, C57BL/6 mice; conditions: for survival rate of ATCC17978-infected mice: intraperitoneal drug
Protocol: (§1) The mouse infection model was employed to detect the immune response induced by Ab in vivo. Mice of the same sex were randomly divided into several groups (5 animals per group) and then infected by 7.5×10^7 CFU of Ab test strain by intraperitoneal administration. The body weight of all mice was recorded before infection and at 12 hours post-infection. Survival of the test animals was determined by recording the mortality rate during the 120-hour experiment. At 12 hpi, the mice were sacrificed, and the organs were collected and homogenized for bacterial load measurement and analysis by flow cytometry, RNAseq, scRNAseq and qRT-PCR assay. The serum of the mice was collected for ELISA detection. Animal experiments were conducted at least twice to assess the consistency of the data.
To test the effect of NSAIDs treatment, the mice were administered intraperitoneal injections of 50 mg/kg NPXS and 100 mg/kg ASA 1 h before ATCC 17978 infection; a group of mice that served as control received equivalent volumes of PBS. The survival rate, health status, and weight of the test animals were recorded during the next 120 hours.

[2] = test system: RAW264.7 cells; test: Inhibitor treatment in RAW264.7 infected with ATCC 17978, flow cytometry of CD86/CD206; type: cell-based, mouse; conditions: RAW264.7 pretreated 1 h, Ab MOI=5 for 6 h; compared to cells not treated with the inhibitors
Protocol: RAW264.7 cells were pre-treated for 1 h with the culture medium, C29 (100 μM)^22, TJ-M2010-5 (20 μM)^23 and JSH-23 (30 μM)^24 (MCE, NJ, USA) respectively, and then stimulated with Ab (MOI=5) for 6 h in the presence of the culture medium, C29, TJ-M2010-5 or JSH-23. Cell supernatants were collected for subsequent cytokine measurement. RAW264.7 cells were incubated with fluorescently labeled antibodies against mouse F4/80, CD206, and CD86 for flow cytometric analysis, following washes three times with PBS and resuspension in PBS containing 2.5% FBS.

[3] = test system: pro-inflammatory, COX and TLR2/Myd88/NF-κB signaling pathway-related genes
Protocol: as §1
Total RNA was extracted from the homogenized lung samples or RAW264.7 cells (ATCC, CA, USA) upon Ab infection, utilizing the TRIzol™ method (Thermo Fisher Scientific, MA, USA). Turbo DNA-free™ Kit (Invitrogen, CA, USA) was employed for removal of DNA contaminants. 1 μg purified mRNA was reverse transcribed into cDNA using SuperScript™ III First-Strand Synthesis SuperMix Kit (Invitrogen), with a 1:10 dilution for subsequent qRT-PCR analysis. The qRT-PCR was then performed on an ABI QuantStudio 7 Flex Real-Time PCR System (Applied Biosystems, CA, USA) by the PowerUP SYBR Green master mix (Applied Biosystems). The target gene transcription levels were quantified by the comparative Ct method and normalized to the expression level of glyceraldehyde-3-phosphate dehydrogenase (GADPH).
Total RNA extracted from lung samples was sequenced by Novogene Technology (Hong Kong SAR, China). Bioanalyzer 2100 system was used to measure RNA integrity (Agilent Technologies, CA, USA); the NEBNextUltra RNA Library Prep Kit (NEB, CA, USA) was employed to construct the cDNA libraries for Illumina sequencing. The index-coded samples clustering was carried out on a cBot Cluster Generation System by the TruSeq PE Cluster Kit v3-cBot-HS (Illumia, CA, Illumia). The libraries were sequenced on the Illumina Novaseq platform with paired-end 150 bp reads. HISAT2 was used for sequencing reads alignment. Fragments per gene were counted based on exon regions with FeatureCounts v.1.6.243. Differential mRNA level analysis was carried on by the DESeq2 R package. Unigenes with P.adjust<0.05 and |Log2Fold Change|>1 could be described as differentially expressed genes. Gene Enrichment Analysis was conducted for gene ontology enrichment analysis.

[4] = test system: serum cytokine production (TNF-α, IL-6 and IL-1b); conditions: Ab-infected mice, ELISA
Protocol: as §1
Blood was collected from the test mice by orbital bleeding and clotted at RT for 1 h. Blood was subsequently subjected to centrifugation at 10,000 g for 25 min at 4° C. Serum was divided into tubes and stored immediately at −80° C. until cytokine analysis.
The enzyme-linked immunosorbent assay (ELISA) was used to perform cytokine analysis in mouse serum and cell supernatants. Mouse serum was extracted as described above. Pre-treated macrophage cell supernatants were harvested and centrifuged to remove impurities. The levels of IL1β, IL6, and TNF-α were measured by using the IL-1 beta, IL-6 and TNF alpha Mouse Uncoated ELISA Kit (Thermo Fisher Scientific) according to the manufacturer's protocols, respectively.

[5] = test system: CD11b+F4/80+ macrophages in the lungs of Ab-infected mice
Protocol: as §1

[6] = RNA-seq, ATCC 17978-infected mice after NPXS treatment, stated as suppressed

For `CC(=O)Oc1ccccc1C(=O)O` [ASA, acetylsalicylic acid], the “survival rate of ATCC17978-infected mice” value ([1]; at 24 h) was 60% and the “anti-inflammatory potency recorded during Ab infection” value ([1]; comparison with naproxen) was “inferior to that of naproxen”.
In the case of `Cn1cnc([N+](=O)[O-])c1Sc1ncnc2nc[nH]c12` [AzA, azathioprine], the “survival rate of ATCC17978-infected mice” value ([1]; at 36 h) is reported as 40%.
For `C[C@@H]1C[C@H]2[C@@H]3CCC4=CC(=O)C=C[C@]4(C)[C@@]3(F)[C@@H](O)C[C@]2(C)[C@@]1(O)C(=O)CO` [DXMS, dexamethasone], the “survival rate of ATCC17978-infected mice” value ([1]; at 48 h) was 40%.
`Cc1ccc(NCCCc2ccccc2)c(N)c1` [JSH-23] was tested, and the “CD86 MFI levels” value [2] was “decrease” and the “CD206 MFI levels” value [2] was “no difference”.
`COc1ccc2cc([C@H](C)C(=O)O)ccc2c1` [NPXS, (+)-(S)-2-(6-methoxynaphthalen-2-yl) propanoic acid] was tested, and the “relative expression of TLR2/Myd88/NF-κB signaling pathway-related genes” value ([3]; ATCC 17978-infected mice after NPXS treatment) was “further reduction”, the “transcript levels of most pro-inflammatory genes” value ([3]; Ab-infected mice, lungs) was “significantly lower” and the “expression of COX1 gene, Log2FC” value [3, 6] was 0.4194. For the same compound, the “expression of COX2 gene, Log2FC” value [3, 6] was 0.2429, the “reduction of serum IL-1b production” value [4] was “more than 50 fold” and the “reduction of serum IL-6 production” value [4] was “more than 50 fold”. The “reduction of serum TNF-α production” value [4] was “more than 50 fold”, the “CD86 MFI levels (M1 polarization)” value ([5]; F4/80+ macrophages in the lungs of Ab-infected mice) was “effectively attenuated” and the “infiltration of CD11b+F4/80+ macrophages” value ([5]; lungs of Ab-infected mice) was “did not result in decrease”. The “extent of body weight loss” value ([1]; 12 hpi, on average, infected untreated 6.7%) was 3.6%, the “splenomegaly (percentage of spleen weight)” value ([1]; on average, infected untreated 0.48%) was 0.38% and the “infected mice protected from death” value ([1]; within 120 h, 50 mg/kg i.p. 1 h before infection) was 100%.
In the case of `O=C(CCN1CCN(Cc2ccccc2)CC1)Nc1nc(-c2ccccc2)cs1` [TJ-M2010-5], the “CD86 MFI levels” value [2] is reported as “decrease” and the “CD206 MFI levels” value [2] is reported as “no difference”.
